Like-named read-outs stand apart in the source and are kept apart here.
What was measured:
Type in all cases: in vivo
[1] = system: silverleaf whitefly (Bemisia argentifolii Bellows and Perring); assay: Test A: silverleaf whitefly control on cotton or soybean plants, spray, insect mortality after 13 days; conditions: Bemisia argentifolii, applied alone, read-out: % Mortality (obs)
Method: (§1) The pest control protection afforded by the mixtures or compositions is not limited, however, to these species. The analysis of enhanced activity between the mixtures or compositions was determined using Colby's equation. The average % mortality data for the test compounds alone were inserted into the Colby's equation. If the observed (obs) average % mortality was higher than “p”, the expected (exp) % mortality, the mixture or composition had enhanced effects. If the observed average % mortality was equal to or lower than the expected mortality, the mixture or composition either had no enhanced effect. For bioassays where insect feeding damage was evaluated, enhanced activity is identified when the observed plant damage is less than the expected plant damage rating; ratings ranged between 0 (no damage) and 10 (dead plant) and each value was converted to a % plant protection. 100−(Obs Plant Damage*10)
For evaluating control of silverleaf whitefly (Bemisia argentifolii Bellows and Perring) through contact and/or systemic means, each test unit consisted of a small open container with a 12- to 14-day-old cotton plant or 5-7 day old soybean plant inside. This was pre-infested by placing test units into cages containing adult whiteflies so that oviposition on the cotton leaves could occur. The adults were removed from the plants with an air-blast nozzle, and the test units were capped. The test units were then stored 2 to 3 days before spraying.
Test compounds were formulated using a solution containing 10% acetone, 90% water and 300 ppm Activator 90@ Spreader Lo-Foam Formula non-ionic surfactant containing alkylarylpolyoxyethylene, free fatty acids, glycols and 2-propanol (Loveland Industries, Inc.) to provide the desired concentration in ppm. Formulated test solutions were then applied in 1 mL volumes through a SUJ2 atomizer nozzle with ⅛ JJ custom body (Spraying Systems Co.) positioned 1.27 cm (0.5 inches) above the top of each test unit.
The results for all experimental compositions in this test were replicated three times. After spraying of the formulated test composition, each test unit was allowed to dry for 1 hour and the cap removed. The test units were held for 13 days in a growth chamber at 28° C. and 50-70% relative humidity.

[2] = system: corn planthopper (Peregrinus maidis (Ashmead)); assay: Test C: corn planthopper control on corn plants, insect mortality after 6 days; conditions: Peregrinus maidis, read-out: % Mortality (obs)
Method: as §1
For evaluating control of corn planthopper (Peregrinus maidis (Ashmead)) through contact and/or systemic means, the test unit consisted of a small open container with a 3-4-day-old corn (maize) plant inside. White sand was added to the top of the soil prior to application of the test compound.
Test compounds were formulated and sprayed at 250 and/or 50 ppm and/or 10 ppm. After spraying of the formulated test compound, the test units were allowed to dry for 1 h before they were post-infested with ˜15-20 nymphs (18-to-21-day-old). […]

[3] = system: cotton melon aphid (Aphis gossypii Glover); assay: Test D: cotton melon aphid control on okra plants, insect mortality after 6 days; conditions: Aphis gossypii, read-out: % Mortality (obs)
Method: The analysis of enhanced activity between the mixtures or compositions was determined using Colby's equation. The average % mortality data for the test compounds alone were inserted into the Colby's equation. If the observed (obs) average % mortality was higher than “p”, the expected (exp) % mortality, the mixture or composition had enhanced effects. If the observed average % mortality was equal to or lower than the expected mortality, the mixture or composition either had no enhanced effect. For bioassays where insect feeding damage was evaluated, enhanced activity is identified when the observed plant damage is less than the expected plant damage rating; ratings ranged between 0 (no damage) and 10 (dead plant) and each value was converted to a % plant protection. 100−(Obs Plant Damage*10)
For evaluating control of cotton melon aphid (Aphis gossypii Glover) through contact and/or systemic means, each test unit consisted of a small open container with a 6- to 7-day-old okra plant inside. This was pre-infested by placing on a leaf of the test plant 30 to 40 aphids on a piece of leaf excised from a culture plant (cut-leaf method). The […] moved onto the test plant as the leaf piece desiccated. After pre-infestation, the soil of the test unit was covered with a layer of sand.
Test compounds were formulated and sprayed as described for Test A. The applications were replicated three times. After spraying of the formulated test compounds, each test unit was allowed to dry for 1 hour and then a black, screened cap was placed on top. […]

SMILES | mortality at 50 ppm ([1]; 2 h, Table 2h) | mortality at 250 ppm ([1]; 2 h, Table 2h) | mortality at 50 ppm ([1]; 48 h, Table 2d) | mortality at 250 ppm ([1]; 48 h, Table 2d) | mortality at 50 ppm ([1]; Table 2a) | mortality at 250 ppm ([1]; Table 2a) | mortality at 50 ppm ([1]; Table 2b) | mortality at 250 ppm ([1]; Table 2b) | mortality at 50 ppm ([1]; Table 2c) | mortality at 250 ppm ([1]; Table 2c) | mortality at 50 ppm ([1]; Table 2e) | mortality at 250 ppm ([1]; Table 2e) | mortality at 50 ppm ([1]; Table 2f) | mortality at 250 ppm ([1]; Table 2f) | mortality at 50 ppm ([1]; Table 2g) | mortality at 250 ppm ([1]; Table 2g) | mortality at 50 ppm ([2]; 96 h, Table 4d) | mortality at 250 ppm ([2]; 96 h, Table 4d) | mortality at 50 ppm ([2]; Table 4e) | mortality at 250 ppm ([2]; Table 4e) | further results
CSCC(C)(C)NC(=O)c1ccc(F)c2nn(-c3cccnc3)cc12 [Cpd 1, N-[1,1-dimethyl-2-(methylthio)ethyl]-7-fluoro-2-(3-pyridinyl)-2H-indazole-4-carboxamide] | 2.4% | 7.6% | 0% | 1.3% | 0% | 18.8% | 80% | 0% | 0% | 3.1% | 0% | 2.2% | 9.3% | 0% | 2.6% | 2.1% | 14.8% | 45.8% | 18.9% | 7.6% | mortality at 0.08 ppm ([3]; 5 h, Table 5h): 37.3%; mortality at 0.12 ppm ([3]; 5 h, Table 5h): 50.5%; mortality at 0.08 ppm ([3]; 120 h, Table 5d): 23.8%; mortality at 0.12 ppm ([3]; 120 h, Table 5d): 49.8%; mortality at 0.08 ppm ([3]; Table 5a): 23.8%; mortality at 0.12 ppm ([3]; Table 5a): 49.8%; mortality at 0.08 ppm ([3]; Table 5b): 23.8%; mortality at 0.12 ppm ([3]; Table 5b): 49.8%; mortality at 0.08 ppm ([3]; Table 5c): 100%; mortality at 0.12 ppm ([3]; Table 5c): 26.7%; mortality at 0.08 ppm ([3]; Table 5e): 21.3%; mortality at 0.12 ppm ([3]; Table 5e): 35.3%; mortality at 0.08 ppm ([3]; Table 5f): 20.8%; mortality at 0.12 ppm ([3]; Table 5f): 39.4%; mortality at 0.08 ppm ([3]; Table 5g): 29.1%; mortality at 0.12 ppm ([3]; Table 5g): 35.9%
C[S+]([O-])CC(C)(C)NC(=O)c1ccc(F)c2nn(-c3cccnc3)cc12 (stereo not drawn) [Cpd 2, N-[1,1-dimethyl-2-(methylsulfinyl)ethyl]-7-fluoro-2-(3-pyridinyl)-2H-indazole-4-carboxamide] | 0% | 2.9% | 7.5% | 28% | 10.9% | 74.5% | 80% | 53.3% | 11.8% | 75.4% | 17.8% | 90.2% | 15.7% | 90.6% | 31.1% | 91.7% | 0% | 54.1% | 7.3% | 22.4% | mortality at 0.05 ppm ([3]; 5 h, Table 5h): 43.9%; mortality at 0.18 ppm ([3]; 5 h, Table 5h): 57.5%; mortality at 0.05 ppm ([3]; 120 h, Table 5d): 40.1%; mortality at 0.18 ppm ([3]; 120 h, Table 5d): 31.4%; mortality at 0.05 ppm ([3]; Table 5a): 40.1%; mortality at 0.18 ppm ([3]; Table 5a): 31.4%; mortality at 0.05 ppm ([3]; Table 5b): 40.1%; mortality at 0.18 ppm ([3]; Table 5b): 31.4%; mortality at 0.05 ppm ([3]; Table 5c): 0%; mortality at 0.18 ppm ([3]; Table 5c): 80%; mortality at 0.05 ppm ([3]; Table 5e): 16.3%; mortality at 0.18 ppm ([3]; Table 5e): 37%; mortality at 0.05 ppm ([3]; Table 5f): 17.1%; mortality at 0.18 ppm ([3]; Table 5f): 37.2%; mortality at 0.05 ppm ([3]; Table 5g): 23.4%; mortality at 0.18 ppm ([3]; Table 5g): 38.3%

Reference: patent US12419307B2, “Mixtures comprising indazole pesticides” (FMC Corporation, priority 2019, dated 2025)
